Results from patent US20060069132A1, “Azolecarboxamide herbicides” (priority 2004, published 2006).

Columns and labels:
large crabgrass = test: Test B pre-/postemergence herbicide test; assay type: in vivo, Digitaria sanguinalis
Summary of the method: (§1)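 Greenhouse pot assay with simultaneous preemergence (treated seed) and postemergence (2–18 cm seedlings) applications of surfactant-containing, non-phytotoxic solvent formulations. Response scored visually 13–15 days later on a 0–100 scale, 100 meaning complete control.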

velvetleaf = test: Test B pre-/postemergence herbicide test; assay type: in vivo, Abutilon theophrasti
Summary of the method: as §1

cocklebur = test: Test B pre-/postemergence herbicide test; assay type: in vivo, Xanthium strumarium
Summary of the method: (§2)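 Herbicidal effect was judged by eye on a 0–100 scale after plants stood 13 to 15 days in the greenhouse following pre- or postemergence treatment with surfactant-containing formulations.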

giant foxtail = test: Test B pre-/postemergence herbicide test; assay type: in vivo, Setaria faberi
Summary of the method: as §1

wild oat [1] = test: Test B postemergence herbicide test; assay type: in vivo, Avena fatua
Summary of the method: (§3)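 Treated at 2-leaf (paddy) or 1–4-leaf, 2–18 cm (postemergence); greenhouse 13–15 d; visual score vs control, 0 none to 100 complete control; dash = not tested.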

pigweed = test: Test B pre-/postemergence herbicide test; assay type: in vivo, Amaranthus retroflexus
Summary of the method: as §1

morningglory = test: Test B pre-/postemergence herbicide test; assay type: in vivo, Ipomoea coccinea
Summary of the method: as §2

barnyardgrass [2] = test: Test B flooded paddy test; assay type: in vivo, Echinochloa crus-galli; conditions: 1000 g ai/ha, scale 0 to 100 (0 no effect, 100 complete control)
Summary of the method: as §3

Italian ryegrass = test: Test C postemergence herbicide test; assay type: in vivo, Lolium multiflorum
Experimental: (§4) At the same time, plants selected from these crop and weed species and also winter barley (Hordeum vulgare L.), blackgrass (Alopecurus myosuroides Huds.), canarygrass (Phalaris minor Retz.), chickweed (Stellaria media (L.) Vill.), downy bromegrass (Bromus tectorum L.), green foxtail (Setaria viridis (L.) Beauv.), Italian ryegrass (Lolium multiflorum Lam.), wheat (Triticum aestivum L.), wild oat (Avenafatua L.) and windgrass (Apera spica-venti (L.) Beauv.) were treated with postemergence applications of some of the test chemicals formulated in the same manner. Plants ranged in height from 2 to 18 cm (1- to 4-leaf stage) for postemergence treatments. Plant species in the flooded paddy test consisted of rice (Oryza sativa), smallflower umbrella sedge (Cyperus difformis L.), ducksalad (Heteranthera limosa (Sw.) Willd.) and barnyardgrass (Echinochloa crus-galli (L.) Beauv.) grown to the 2-leaf stage for testing. Treated plants and controls were maintained in a greenhouse for 12 to 14 days, after which time all species were compared to controls and visually evaluated. Plant response ratings, summarized in Table C, are based on a scale of 0 to 100 where 0 is no effect and 100 is complete control. A dash (-) response means no test result.

lambsquarters = test: Test B pre-/postemergence herbicide test; assay type: in vivo, Chenopodium album
Summary of the method: as §1

wheat [3] = test: Test B postemergence herbicide test; assay type: in vivo, Triticum aestivum; parameters: key to Wheat plant response rating: 0 = no effect, 100 = complete control
Summary of the method: as §3

winter barley = test: Test C postemergence herbicide test; assay type: in vivo, Hordeum vulgare
Experimental: as §4

green foxtail = test: Test C postemergence herbicide test; assay type: in vivo, Setaria viridis
Experimental: as §4

wild oat [4] = test: Test C postemergence herbicide test; assay type: in vivo, Avenafatua
Experimental: as §4

wheat [5] = test: Test C postemergence herbicide test; assay type: in vivo, Triticum aestivum
Experimental: as §4

windgrass = test: Test C postemergence herbicide test; assay type: in vivo, Apera spica-venti
Experimental: as §4

canarygrass = test: Test C postemergence herbicide test; assay type: in vivo, Phalaris minor
Experimental: as §4

rice = test: Test B flooded paddy test; assay type: in vivo, Oryza sativa; conditions: 1000 g ai/ha, scale 0 to 100 (0 no effect, 100 complete control)
Summary of the method: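 Greenhouse test; postemergence application to plants at 1–4 leaves (2–18 cm); paddy species at 2 leaves; evaluated visually vs controls at 13–15 days; scale 0–100 (100 = complete control).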

Surinam grass = test: Test B pre-/postemergence herbicide test; assay type: in vivo, Urochloa decumbens
Summary of the method: as §1

downy bromegrass = test: Test C postemergence herbicide test; assay type: in vivo, Bromus tectorum
Experimental: as §4

[6] = tested on: small flower umbrella sedge; test: Test B flooded paddy test; assay type: in vivo, Cyperus difformis; conditions: 1000 g ai/ha, scale 0 to 100 (0 no effect, 100 complete control)
Summary of the method: as §3

blackgrass [7] = test: Test C postemergence herbicide test; assay type: in vivo, Alopecurus myosuroides
Experimental: as §4

ducksalad = test: Test B flooded paddy test; assay type: in vivo, Heteranthera limosa; conditions: 1000 g ai/ha, scale 0 to 100 (0 no effect, 100 complete control)
Summary of the method: as §3

blackgrass [8] = test: Test B postemergence herbicide test; assay type: in vivo, Alopecurus myosuroides
Summary of the method: as §3

barnyardgrass [9] = test: Test B pre-/postemergence herbicide test; assay type: in vivo, Echinochloa crus-galli; conditions: for Barnyardgrass plant response rating: Postemergence, scale 0 (no effect) to 100 (complete control)
Summary of the method: as §2

corn = test: Test B pre-/postemergence herbicide test; assay type: in vivo, Zea mays
Summary of the method: as §1

[10] = 125 g ai/ha, 0 is no effect, 100 is complete control, preemergence
[11] = Postemergence, 500 g ai/ha, scale 0 (no effect) to 100 (complete control)
[12] = postemergence, 125 g ai/ha, scale 0 to 100
[13] = Postemergence, 500 g ai/ha, scale 0 to 100, 0 no effect, 100 complete control
[14] = postemergence, 62 g ai/ha, scale 0 to 100
[15] = Postemergence, 500 g ai/ha, scale 0 to 100
[16] = Postemergence, 250 g ai/ha, scale 0 to 100, 0 no effect, 100 complete control

Compound: CN(C)C(=O)c1cccc(NC(=O)c2nn(C(C)(C)C)nc2Br)c1 [Compound 429]
- Plant response rating (0 to 100 scale), Crabgrass, Large (large crabgrass; [10]): 100
- Crabgrass, Large plant response rating (large crabgrass; [11]): 40
- Crabgrass, Large plant response rating (large crabgrass; [12]): 30
- Plant response rating (0 to 100 scale), Velvetleaf (velvetleaf; [10]): 80
- Velvetleaf plant response rating (velvetleaf; [11]): 60
- Velvetleaf plant response rating (velvetleaf; [12]): 50
- Plant response rating (0 to 100 scale), Cocklebur (cocklebur; [10]): 60
- Cocklebur plant response rating (cocklebur; [11]): 70
- Cocklebur plant response rating (cocklebur; [12]): 60
- Plant response rating (0 to 100 scale), Foxtail, Giant (giant foxtail; [10]): 90
- Foxtail, Giant plant response rating (giant foxtail; [11]): 40
- Foxtail, Giant plant response rating (giant foxtail; [12]): 30
- Oat, Wild plant response rating (wild oat [1]; [11]): 40
- Oat, Wild plant response rating (wild oat [1]; [12]): 30
- Plant response rating (0 to 100 scale), Pigweed (pigweed; [10]): 100
- Pigweed plant response rating (pigweed; [11]): 50
- Pigweed plant response rating (pigweed; [12]): 40
- Plant response rating (0 to 100 scale), Morningglory (morningglory; [10]): 90
- Morningglory plant response rating (morningglory; [11]): 80
- Morningglory plant response rating (morningglory; [12]): 70
- Barnyardgrass plant response rating (barnyardgrass [2]): 100
- Plant response rating, Ryegrass, Italian (Italian ryegrass; [13]): 60
- Plant response rating, Ryegrass, Italian (Italian ryegrass; [12]): 50
- Plant response rating, Ryegrass, Italian (Italian ryegrass; [14]): 45
- Plant response rating (0 to 100 scale), Lambsquarters (lambsquarters; [10]): 100
- Lambsquarters plant response rating (lambsquarters; [11]): 70
- Lambsquarters plant response rating (lambsquarters; [12]): 50
- Wheat plant response rating (wheat [3]; 500 g ai/ha, scale 0 to 100, 0 no effect, 100 complete control, preemergence): 100
- Wheat plant response rating (wheat [3]; [11]): 40
- Wheat plant response rating (wheat [3]; [12]): 20
- Barley, Winter plant response rating (winter barley; [15]): 40
- Plant response rating, Barley, Winter (winter barley; Postemergence, 125 g ai/ha, scale 0 to 100, 0 no effect, 100 complete control): 35
- Plant response rating, Barley, Winter (winter barley; [16]): 35
- Plant response rating, Barley, Winter (winter barley; postemergence, 62 g ai/ha, scale 0 to 100 (0 no effect, 100 complete control)): 25
- Plant response rating, Foxtail, Green (green foxtail; [16]): 55
- Plant response rating, Foxtail, Green (green foxtail; [13]): 65
- Plant response rating, Foxtail, Green (green foxtail; [12]): 50
- Plant response rating, Foxtail, Green (green foxtail; [14]): 40
- Plant response rating, Oat, Wild (wild oat [4]; [13]): 65
- Plant response rating, Oat, Wild (wild oat [4]; [12]): 60
- Plant response rating, Oat, Wild (wild oat [4]; [14]): 45
- Plant response rating, Wheat (wheat [5]; [13]): 45
- Plant response rating, Wheat (wheat [5]; [12]): 35
- Plant response rating, Wheat (wheat [5]; [14]): 25
- Plant response rating, Windgrass (windgrass; [13]): 60
- Plant response rating, Windgrass (windgrass; [12]): 40
- Plant response rating, Windgrass (windgrass; [14]): 40
- Plant response rating, Canarygrass (canarygrass; [16]): 55
- Plant response rating, Canarygrass (canarygrass; [13]): 60
- Plant response rating, Canarygrass (canarygrass; [12]): 40
- Plant response rating, Canarygrass (canarygrass; [14]): 20
- Rice plant response rating (rice): 70
- Plant response rating (0 to 100 scale), Surinam Grass (Surinam grass; [10]): 70
- Surinam Grass plant response rating (Surinam grass; [11]): 30
- Surinam Grass plant response rating (Surinam grass; [12]): 20
- Plant response rating, Bromegrass, Downy (downy bromegrass; [16]): 45
- Plant response rating, Bromegrass, Downy (downy bromegrass; [13]): 55
- Plant response rating, Bromegrass, Downy (downy bromegrass; [12]): 40
- Plant response rating, Bromegrass, Downy (downy bromegrass; [14]): 40
- Sedge, Umbrella plant response rating [6]: 90
- Blackgrass plant response rating (blackgrass [7]; [15]): 65
- Plant response rating, Blackgrass (blackgrass [7]; [16]): 60
- Plant response rating, Blackgrass (blackgrass [7]; [12]): 60
- Plant response rating, Blackgrass (blackgrass [7]; [14]): 45
- Ducksalad plant response rating (ducksalad): 60
- Blackgrass plant response rating (blackgrass [8]; [11]): 50
- Blackgrass plant response rating (blackgrass [8]; [12]): 20
- Plant response rating (0 to 100 scale), Barnyardgrass (barnyardgrass [9]; [10]): 100
- Barnyardgrass plant response rating (barnyardgrass [9]; 125 g ai/ha): 30
- Barnyardgrass plant response rating (barnyardgrass [9]; 500 g ai/ha): 60
- Plant response rating (0 to 100 scale), Corn (corn; [10]): 40
- Corn plant response rating (corn; [11]): 40
- Corn plant response rating (corn; [12]): 30
